Test results taken from ChEMBL document CHEMBL1201862, “PubChem BioAssay data set” (2004).
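Step 1: Grow cells in 96-well plates. Step 2: Expose to compound for 48 hours at 5 concentrations. Step 3: Interpolate endpoints linearly; if unreached, use highest concentration. GI50 marks 50% less growth.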 Calls of active or inactive are those of the source. Rule as the data show it: active = GI50 up to about 1.1 µM and inactive = higher.

Key:
Experiment in all cases: NCI anticancer screen, dose series, 48 h
NCI-H226 = tested on: NCI-H226
SK-MEL-2 = tested on: SK-MEL-2
HT-29 = tested on: HT-29
M14 = tested on: M14
A498 = tested on: A498
HCT-116 = tested on: HCT-116
OVCAR-4 = tested on: OVCAR-4
SNB-78 = tested on: SNB-78
SK-MEL-28 = tested on: SK-MEL-28
SNB-19 = tested on: SNB-19
786-0 = tested on: 786-0
SN12C = tested on: SN12C
HCC 2998 = tested on: HCC 2998
HL-60 = tested on: HL-60
HCT-15 = tested on: HCT-15
MOLT-4 = tested on: MOLT-4
NCI-H23 = tested on: NCI-H23
NCI-H460 = tested on: NCI-H460
RXF 393 = tested on: RXF 393
OVCAR-3 = tested on: OVCAR-3
UACC-257 = tested on: UACC-257
HOP-18 = tested on: HOP-18
M19-MEL = tested on: M19-MEL
HOP-92 = tested on: HOP-92
EKVX = tested on: EKVX
OVCAR-8 = tested on: OVCAR-8
SK-MEL-5 = tested on: SK-MEL-5
SW-620 = tested on: SW-620
COLO 205 = tested on: COLO 205
DMS-114 = tested on: DMS-114
LOX IMVI = tested on: LOX IMVI
UO-31 = tested on: UO-31
DLD-1 = tested on: DLD-1
SF-539 = tested on: SF-539
SF-295 = tested on: SF-295
SNB-75 = tested on: SNB-75
XF498 = tested on: XF498
SK-OV-3 = tested on: SK-OV-3
SR = tested on: SR
CCRF-CEM = tested on: CCRF-CEM
HOP-62 = tested on: HOP-62
U-251 = tested on: U-251
A549 = tested on: A549
RXF 631 = tested on: RXF 631
K562 = tested on: K562
UACC-62 = tested on: UACC-62
TK-10 = tested on: TK-10
DMS-273 = tested on: DMS-273
KM-20L2 = tested on: KM-20L2
OVCAR-5 = tested on: OVCAR-5
ACHN = tested on: ACHN
RPMI-8226 = tested on: RPMI-8226
SF-268 = tested on: SF-268
Malme-3M = tested on: Malme-3M
LXFL 529 = tested on: LXFL 529
CAKI-1 = tested on: CAKI-1
IGROV-1 = tested on: IGROV-1
KM12 = tested on: KM12
NCI-H522 = tested on: NCI-H522

Structure (SMILES): COc1cc2c(OC)cc1CSCc1sc(C)c(c1Br)CSC2
- GI50 (NCI-H226): > 100 µM (inactive)
- GI50 (SK-MEL-2): > 100 µM (inactive)
- GI50 (HT-29): > 100 µM (inactive)
- GI50 (M14): > 100 µM (inactive)
- GI50 (A498): > 100 µM (inactive)
- GI50 (HCT-116): > 100 µM (inactive)
- GI50 (OVCAR-4): > 100 µM (inactive)
- GI50 (SNB-78): > 100 µM (inactive)
- GI50 (SK-MEL-28): > 100 µM (inactive)
- GI50 (SNB-19): > 100 µM (inactive)
- GI50 (786-0): > 100 µM (inactive)
- GI50 (SN12C): > 100 µM (inactive)
- GI50 (HCC 2998): > 100 µM (inactive)
- GI50 (HL-60): 69.3 µM (inactive)
- GI50 (HCT-15): > 100 µM
- GI50 (MOLT-4): > 100 µM (inactive)
- GI50 (NCI-H23): > 100 µM (inactive)
- GI50 (NCI-H460): > 100 µM (inactive)
- GI50 (RXF 393): > 100 µM (inactive)
- GI50 (OVCAR-3): > 100 µM (inactive)
- GI50 (UACC-257): > 100 µM (inactive)
- GI50 (HOP-18): > 100 µM (inactive)
- GI50 (M19-MEL): > 100 µM (inactive)
- GI50 (HOP-92): > 100 µM (inactive)
- GI50 (EKVX): > 100 µM (inactive)
- GI50 (OVCAR-8): > 100 µM (inactive)
- GI50 (SK-MEL-5): > 100 µM (inactive)
- GI50 (SW-620): > 100 µM (inactive)
- GI50 (COLO 205): > 100 µM (inactive)
- GI50 (DMS-114): > 100 µM (inactive)
- GI50 (LOX IMVI): > 100 µM (inactive)
- GI50 (UO-31): > 100 µM (inactive)
- GI50 (DLD-1): > 100 µM (inactive)
- GI50 (SF-539): > 100 µM (inactive)
- GI50 (SF-295): > 100 µM (inactive)
- GI50 (SNB-75): 74.1 µM (inactive)
- GI50 (XF498): > 100 µM (inactive)
- GI50 (SK-OV-3): > 100 µM (inactive)
- GI50 (SR): 4.16 µM (inactive)
- GI50 (CCRF-CEM): > 100 µM (inactive)
- GI50 (HOP-62): > 100 µM (inactive)
- GI50 (U-251): > 100 µM (inactive)
- GI50 (A549): > 100 µM (inactive)
- GI50 (RXF 631): > 100 µM (inactive)
- GI50 (K562): > 100 µM (inactive)
- GI50 (UACC-62): > 100 µM (inactive)
- GI50 (TK-10): > 100 µM (inactive)
- GI50 (DMS-273): > 100 µM (inactive)
- GI50 (KM-20L2): > 100 µM (inactive)
- GI50 (OVCAR-5): > 100 µM (inactive)
- GI50 (ACHN): > 100 µM (inactive)
- GI50 (RPMI-8226): > 100 µM (inactive)
- GI50 (SF-268): > 100 µM (inactive)
- GI50 (Malme-3M): > 100 µM (inactive)
- GI50 (LXFL 529): > 100 µM (inactive)
- GI50 (CAKI-1): > 100 µM (inactive)
- GI50 (IGROV-1): > 100 µM (inactive)
- GI50 (KM12): > 100 µM (inactive)

Structure (SMILES): CCCOC(=O)C1C(c2ccc(OC)cc2)NC(c2ccc(OC)cc2)C(C(=O)OCCC)S1(=O)=O (stereo unspecified)
- GI50 (NCI-H226): > 10 µM (inactive)
- GI50 (SK-MEL-2): > 10 µM (inactive)
- GI50 (HT-29): > 10 µM (inactive)
- GI50 (M14): > 10 µM (inactive)
- GI50 (A498): 85.3 µM (inactive)
- GI50 (HCT-116): > 10 µM (inactive)
- GI50 (OVCAR-4): > 10 µM (inactive)
- GI50 (SNB-78): > 10 µM (inactive)
- GI50 (SK-MEL-28): > 10 µM (inactive)
- GI50 (SNB-19): > 10 µM (inactive)
- GI50 (786-0): > 10 µM (inactive)
- GI50 (SN12C): > 10 µM (inactive)
- GI50 (HCC 2998): > 10 µM (inactive)
- GI50 (HL-60): > 100 µM (inactive)
- GI50 (HCT-15): > 10 µM
- GI50 (MOLT-4): > 10 µM (inactive)
- GI50 (NCI-H23): > 10 µM (inactive)
- GI50 (NCI-H460): > 10 µM (inactive)
- GI50 (RXF 393): > 10 µM (inactive)
- GI50 (OVCAR-3): > 10 µM (inactive)
- GI50 (UACC-257): > 10 µM (inactive)
- GI50 (HOP-18): > 10 µM (inactive)
- GI50 (HOP-92): > 10 µM (inactive)
- GI50 (EKVX): > 10 µM (inactive)
- GI50 (OVCAR-8): > 10 µM (inactive)
- GI50 (SK-MEL-5): > 10 µM (inactive)
- GI50 (SW-620): > 10 µM (inactive)
- GI50 (COLO 205): > 10 µM (inactive)
- GI50 (DMS-114): > 10 µM (inactive)
- GI50 (LOX IMVI): > 10 µM (inactive)
- GI50 (UO-31): > 10 µM (inactive)
- GI50 (DLD-1): > 10 µM (inactive)
- GI50 (SF-539): > 10 µM (inactive)
- GI50 (SF-295): > 10 µM (inactive)
- GI50 (SNB-75): > 10 µM (inactive)
- GI50 (XF498): 9.18 µM (inactive)
- GI50 (SK-OV-3): > 100 µM (inactive)
- GI50 (SR): > 100 µM (inactive)
- GI50 (CCRF-CEM): > 10 µM (inactive)
- GI50 (HOP-62): > 10 µM (inactive)
- GI50 (U-251): > 10 µM (inactive)
- GI50 (A549): > 10 µM (inactive)
- GI50 (RXF 631): > 10 µM (inactive)
- GI50 (K562): > 10 µM (inactive)
- GI50 (NCI-H522): > 10 µM (inactive)
- GI50 (UACC-62): > 10 µM (inactive)
- GI50 (TK-10): > 10 µM (inactive)
- GI50 (DMS-273): > 10 µM (inactive)
- GI50 (KM-20L2): > 10 µM (inactive)
- GI50 (OVCAR-5): > 10 µM (inactive)
- GI50 (ACHN): > 10 µM (inactive)
- GI50 (RPMI-8226): > 10 µM (inactive)
- GI50 (SF-268): > 10 µM (inactive)
- GI50 (Malme-3M): > 10 µM (inactive)
- GI50 (LXFL 529): > 10 µM (inactive)
- GI50 (CAKI-1): > 10 µM (inactive)
- GI50 (IGROV-1): > 10 µM (inactive)
- GI50 (KM12): > 10 µM (inactive)

Structure (SMILES): NCCCNCCSSCc1ccccc1CSSCCNCCCN
- GI50 (SK-MEL-2): > 100 µM (inactive)
- GI50 (HT-29): 14.2 µM (inactive)
- GI50 (M14): 31.9 µM (inactive)
- GI50 (A498): > 100 µM (inactive)
- GI50 (OVCAR-4): 70.6 µM (inactive)
- GI50 (SNB-78): 56.5 µM (inactive)
- GI50 (SK-MEL-28): 75 µM (inactive)
- GI50 (SNB-19): > 100 µM (inactive)
- GI50 (SN12C): > 100 µM (inactive)
- GI50 (HCC 2998): 81.5 µM (inactive)
- GI50 (HL-60): 9.93 µM (inactive)
- GI50 (HCT-15): 57.1 µM
- GI50 (MOLT-4): 22 µM (inactive)
- GI50 (NCI-H23): > 100 µM (inactive)
- GI50 (NCI-H460): > 100 µM (inactive)
- GI50 (RXF 393): > 100 µM (inactive)
- GI50 (OVCAR-3): 73.8 µM (inactive)
- GI50 (UACC-257): 25 µM (inactive)
- GI50 (HOP-18): > 100 µM (inactive)
- GI50 (M19-MEL): 50 µM (inactive)
- GI50 (HOP-92): 25.9 µM (inactive)
- GI50 (EKVX): > 100 µM (inactive)
- GI50 (OVCAR-8): > 100 µM (inactive)
- GI50 (SK-MEL-5): 79.3 µM (inactive)
- GI50 (SW-620): 16.7 µM (inactive)
- GI50 (COLO 205): 39.4 µM (inactive)
- GI50 (DMS-114): 57.3 µM (inactive)
- GI50 (LOX IMVI): 61.1 µM (inactive)
- GI50 (UO-31): 60.5 µM (inactive)
- GI50 (DLD-1): 44.4 µM (inactive)
- GI50 (SF-539): > 100 µM (inactive)
- GI50 (SF-295): > 100 µM (inactive)
- GI50 (SNB-75): 16.4 µM (inactive)
- GI50 (XF498): 85.1 µM (inactive)
- GI50 (SK-OV-3): > 100 µM (inactive)
- GI50 (CCRF-CEM): 4.54 µM (inactive)
- GI50 (HOP-62): > 100 µM (inactive)
- GI50 (U-251): > 100 µM (inactive)
- GI50 (A549): > 100 µM (inactive)
- GI50 (RXF 631): > 100 µM (inactive)
- GI50 (K562): 23.6 µM (inactive)
- GI50 (NCI-H522): 10.7 µM (inactive)
- GI50 (UACC-62): 34.1 µM (inactive)
- GI50 (TK-10): > 100 µM (inactive)
- GI50 (DMS-273): > 100 µM (inactive)
- GI50 (KM-20L2): > 100 µM (inactive)
- GI50 (OVCAR-5): > 100 µM (inactive)
- GI50 (ACHN): 37 µM (inactive)
- GI50 (RPMI-8226): 27.8 µM (inactive)
- GI50 (SF-268): 85.1 µM (inactive)
- GI50 (Malme-3M): 90.6 µM (inactive)
- GI50 (LXFL 529): 30.4 µM (inactive)
- GI50 (CAKI-1): 35.7 µM (inactive)
- GI50 (IGROV-1): > 100 µM (inactive)
- GI50 (KM12): 49.9 µM (inactive)
